The subject of assay [1] is carrageenin induced rat paw edema. The assay can be described thus: carrageenin induced rat paw edema antiinflammatory assay. To be noted: for Carrageenin Paw Edema %: dose 20 mg/kg (p.o.), rat. In kind it is in vivo. An excerpt: The compounds of the present invention are useful as antiinflammatory agents due to their ability to suppress inflammation in mammals. […] Exptl. Biol. Med., III 544 (1962), J. Pharmacol. Exp., 141 (1963)].
(In general: The carrageenan paw model is a standard test of acute inflammation.)

Assay [2] concerns 2-phenyl-1,4-benzoquinone-induced writhing. The assay can be described thus: 2-phenyl-1,4-benzoquinone-induced writhing test in mice (analgesia). In kind it is in vivo. To be noted: Mus musculus, po. (In general: Writhing tests count abdominal constrictions after an irritant is injected.)
The mark [3] stands for this setting: mice, read-out: Phenylquinone Writhing ED50 Orally (p.o.).

Like-named read-outs stand apart in the source and are kept apart here.

The ED50 is the midpoint of the dose-response relation. With `CC1(C)COC(Cc2ccc3c(c2)C(=O)c2sccc2CO3)=N1` [2-(4,10-Dihydro-10-oxothieno[3,2-c][1]benzoxepin-8-yl)methyl-4,4-dimethyl-oxazoline], the “Carrageenin Paw Edema %” value in assay [1] is listed as 49%. Further, in assay [2] (setting [3]), the ED50 was 7.22 mg/kg.

In the case of `COC(=O)COC(=O)Cc1ccc2c(c1)C(=O)c1sccc1CO2` [Methyl (4,10-dihydro-10-oxothieno[3,2-c][1]benzoxepin-8-yl) acetoxyacetate], the “Carrageenin Paw Edema %” value in assay [1] is recorded as 43%. The 50% effective dose (ED50) in assay [2] (setting [3]) was found to be 1.53 mg/kg.

Take `COc1ccc2c(c1)c(CC(=O)O)c(C)n2C(=O)c1ccc(Cl)cc1` [indomethacin, reference compound]: the ED50 in assay [2] (read-out: analgesic activity ED50) worked out at 0.7 mg/kg.

Turning to `CCCCC1C(=O)N(c2ccccc2)N(c2ccccc2)C1=O` [phenylbutazone, reference compound], the inhibition of edema in assay [1] (dose 50 mg/kg (p.o.), in a similar test) amounted to 50%.

Values taken from patent publication US4477465A, “Substituted 4,10-dihydro-10-oxothieno benzoxepins” (Hoechst-Roussel Pharmaceuticals Inc., priority 1983, dated 1984).
